Results reported in the NIST ThermoML archive (doi:10.1021/acs.jced.6b00180).
± gives the expanded uncertainty stated by the source.

How the values were obtained:
[1] = refractive index (Na D-line) (dimensionless); details: 293.15 K; 101.33 kPa; Liquid; Standard Abbe refractometry
[2] = Liquid, Ebulliometric method (Recirculating still)
[3] = Boiling temperature at pressure P; details: 101.33 kPa; Liquid; Ebulliometric method (Recirculating still)

| Structure (SMILES) | refractive index [1] | Boiling temperature at pressure P [3] [°C] | further results |
| --- | --- | --- | --- |
| C=CC(=C)C [2-methyl-1,3-butadiene] | 1.4218 ± 0.0005 | – | vapor or sublimation pressure ([2]; 336.35 K): 250 ± 13 kPa |
| CC=C(C)C [2-methyl-2-butene] | 1.3876 ± 0.0005 | – | vapor or sublimation pressure ([2]; 341.15 K): 250 ± 13 kPa |
| CCC(C)C [2-methylbutane] | 1.3535 ± 0.0005 | – | vapor or sublimation pressure ([2]; 330.05 K): 250 ± 13 kPa |
| CC(C)=O [acetone] | 1.3586 ± 0.0005 | 56.2 ± 1 | vapor or sublimation pressure ([2]; 329.35 K): 101.3 ± 5.1 kPa |
| C1CCCC1 [cyclopentane] | 1.4064 ± 0.0005 | – | vapor or sublimation pressure ([2]; 352.85 K): 250 ± 13 kPa |

Second part, led by results:

| refractive index [1] | Boiling temperature at pressure P [3] [°C] | Structure (SMILES) | further results |
| --- | --- | --- | --- |
| 1.4224 ± 0.0005 | – | C1=CCCC1 [cyclopentene] | vapor or sublimation pressure ([2]; 347.35 K): 250 ± 13 kPa |
| 1.3613 ± 0.0005 | 78.4 ± 1 | CCO [ethanol] | vapor or sublimation pressure ([2]; 351.55 K): 101.3 ± 5.1 kPa |
| 1.3748 ± 0.0005 | – | CCCCCC [hexane] | – |
| 1.3286 ± 0.0005 | 64.7 ± 1 | CO [methanol] | – |
| 1.3578 ± 0.0005 | – | CCCCC [pentane] | vapor or sublimation pressure ([2]; 338.35 K): 250 ± 13 kPa |
